Laboratory results taken from patent publication US20220135591A1, “HETEROCYCLIC COMPOUNDS AS INHIBITORS OF MONOACYLGLYCEROL LIPASE (MAGL)” (Hoffmann-La Roche Inc., priority 2019, published 2022).

Tests used:
[1] = target: T1, MAGL (recombinant wild-type) (Homo sapiens, UniProt Q99685); test: 4-NPA assay: MAGL inhibitory activity by hydrolysis of 4-nitrophenylacetate, absorbance at 405 nm; assay type: biochemical; settings: 4-NPA assay (values without footnote [b])
T1 sequence (Q99685 1-303): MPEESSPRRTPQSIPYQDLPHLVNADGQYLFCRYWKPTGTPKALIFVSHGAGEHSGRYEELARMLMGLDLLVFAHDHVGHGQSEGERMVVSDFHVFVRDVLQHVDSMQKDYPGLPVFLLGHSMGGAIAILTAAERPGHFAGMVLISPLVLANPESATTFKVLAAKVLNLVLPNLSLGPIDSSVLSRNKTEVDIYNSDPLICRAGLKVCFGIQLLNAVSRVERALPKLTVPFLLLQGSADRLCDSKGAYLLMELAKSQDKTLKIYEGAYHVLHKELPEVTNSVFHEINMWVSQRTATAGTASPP
Experimental: Compounds were profiled for MAGL inhibitory activity by measuring the enzymatic activity of MAGL by following the hydrolysis of 4-nitrophenylacetate resulting in 4-nitrophenol, which absorbs at 405-412 nm (G. G. Muccioli, G. Labar, D. M. Lambert, Chem. Bio. Chem. 2008, 9, 2704-2710). This assay is hereinafter abbreviated “4-NPA assay”.
The assay was carried out in 384 well assay plates (black with clear bottom, non-binding surface treated, Corning Ref. 3655) in a total volume of 40 μL. Compound dilutions were made in 100% DMSO (VWR Chemicals 23500.297) in a polypropylene plate in 3-fold dilution steps to give a final concentration range in the assay from 25 μM to 1.7 nM. 1 μL compound dilutions (100% DMSO) were added to 19 μL MAGL (recombinant wild-type) in assay buffer (50 mM TRIS (GIBCO, 15567-027), 1 mM EDTA (Fluka, 03690-100 mL)). The plate was shaked for 1 min at 2000 rpm (Variomag Teleshake) and then incubated for 15 min at RT. To start the reaction, 20 μL 4-Nitrophenlyacetate (Sigma N-8130) in assay buffer with 6% EtOH was added. The final concentrations in the assay were 1 nM MAGL and 300 μM 4-Nitrophenylacetate. After shaking (1 min, 2000 rpm) and 5 min incubation at RT, the absorbance at 405 nm was measured for a first time (Molecular Devices, SpectraMax Paradigm). A second measurement was then done after incubation for 80 min at RT. From the two measurements, the slope was calculated by subtracting the first from the second measurement.

MAGL = target: T2, MAGL (Homo sapiens, UniProt Q99685); test: 2-AG assay: MAGL inhibitory activity by hydrolysis of 2-arachidonoylglycerol to arachidonic acid, mass spectrometry; assay type: biochemical; settings: 2-AG assay (values marked [b])
T2 sequence (Q99685 1-303): T1 sequence (Q99685 1-303)
Method in brief: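 Human MAGL […] was preincubated 15 min at RT with compound ([…], 3-fold steps) in 50 mM Tris, 1 mM EDTA, 0.01% Tween. 2-AG (8 μM) was then added for 30 min at RT. Arachidonic acid was quantified by RapidFire SPE–triple quadrupole MS in negative ESI as its ratio to a d8-arachidonic acid standard.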

Structure (SMILES)	IC50 [1]	IC50 (MAGL)
Cc1ccc2oc(N3CCN(C(=O)c4ccc5nc(-c6ccccc6)oc5c4)CC3)nc2n1 [Example 1, (4-(5-Methyloxazolo[4,5-b]pyridin-2-yl)piperazin-1-yl)(2-phenylbenzo[d]oxazol-6-yl)methanone]	0.115 µM	–
O=C(c1ccc2nc(-c3ccccc3)oc2c1)N1CCN(c2nc3ncccc3o2)CC1 [Example 2, (4-(oxazolo[4,5-b]pyridin-2-yl)piperazin-1-yl)(2-phenylbenzo[d]oxazol-6-yl)methanone]	0.194 µM	–
Cc1ccc2oc(N3CCN(C(=O)c4ccc5nc(N6CCCC6)oc5c4)CC3)nc2n1 [Example 3, (4-(5-methyloxazolo[4,5-b]pyridin-2-yl)piperazin-1-yl)(2-(pyrrolidin-1-yl)benzo[d]oxazol-6-yl)methanone]	2.33 µM	–
Cc1ccc2oc(N3CCN(C(=O)c4ccc(-c5noc(C(C)(C)C)n5)cc4)CC3)nc2n1 [Example 4, (4-(5-(tert-butyl)-1,2,4-oxadiazol-3-yl)phenyl)(4-(5-methyloxazolo[4,5-b]pyridin-2-yl)piperazin-1-yl)methanone]	0.027 µM	–
Cc1ccc2oc(N3CCN(C(=O)c4ccc(-c5noc(CC(C)(C)C)n5)cc4)CC3)nc2n1 [Example 5, (4-(5-methyloxazolo[4,5-b]pyridin-2-yl)piperazin-1-yl)(4-(5-neopentyl-1,2,4-oxadiazol-3-yl)phenyl)methanone]	0.009 µM	–
Cc1ccc2oc(N3CCN(C(=O)c4ccc5nc(N6CC7(CCCC7)C6)oc5c4)CC3)nc2n1 [Example 6, (2-(2-azaspiro[3.4]octan-2-yl)benzo[d]oxazol-6-yl)(4-(5-methyloxazolo[4,5-b]pyridin-2-yl)piperazin-1-yl)methanone]	0.025 µM	–
Cc1ccc2oc(N3CCN(C(=O)c4ccc(-c5noc(C(C)(C)CO)n5)cc4)CC3)nc2n1 [Example 7, (4-(5-(1-hydroxy-2-methylpropan-2-yl)-1,2,4-oxadiazol-3-yl)phenyl)(4-(5-methyloxazolo[4,5-b]pyridin-2-yl)piperazin-1-yl)methanone]	0.262 µM	–
CC(C)(C)c1ncn(-c2ccc(C(=O)N3CCN(c4nc5nc(Cl)ccc5o4)CC3)cc2Cl)n1 [Example 292, [4-(3-tert-butyl-1,2,4-triazol-1-yl)-3-chloro-phenyl]-[4-(5-chlorooxazolo[4,5-b]pyridin-2-yl)piperazin-1-yl]methanone]	–	0.075 µM
CC(C)(C)Cn1cnc(-c2ccc(C(=O)N3CCN(c4nc5nc(Cl)ccc5o4)CC3)cc2F)n1 [Example 293, [4-(5-chlorooxazolo[4,5-b]pyridin-2-yl)piperazin-1-yl]-[4-[1-(2,2-dimethylpropyl)-1,2,4-triazol-3-yl]-3-fluoro-phenyl]methanone]	–	0.02 µM
Cc1ccc2oc(N3CCN(C(=O)c4ccc(-c5ncn(CC(C)(C)C)n5)c(F)c4)CC3)nc2n1 [Example 294, [4-[1-(2,2-dimethylpropyl)-1,2,4-triazol-3-yl]-3-fluoro-phenyl]-[4-(5-methyloxazolo[4,5-b]pyridin-2-yl)piperazin-1-yl]methanone]	–	0.034 µM
CC1CN(c2nc3nc(Cl)ccc3o2)CCN1C(=O)c1ccc(-c2cn(CC(C)(C)C)nn2)cc1 (centres unmarked) [Example 295, [4-(5-chlorooxazolo[4,5-b]pyridin-2-yl)-2-methyl-piperazin-1-yl]-[4-[1-(2,2-dimethylpropyl)triazol-4-yl]phenyl]methanone]	–	0.243 µM
Cc1ccc2oc(N3CCN(C(=O)c4ccc(OCC5(C(F)(F)F)CC5)nc4Cl)CC3)nc2n1 [Example 296, [2-chloro-6-[[1-(trifluoromethyl)cyclopropyl]methoxy]-3-pyridyl]-[4-(5-methyloxazolo[4,5-b]pyridin-2-yl)piperazin-1-yl]methanone]	–	2.62 µM
CC(C)(C)c1nc(-c2ccc(C(=O)N3C4CCC3CN(c3nc5nc(Cl)ccc5o3)C4)cc2)no1 [Example 297, [4-(5-tert-butyl-1,2,4-oxadiazol-3-yl)phenyl]-[3-(5-chlorooxazolo[4,5-b]pyridin-2-yl)-3,8-diazabicyclo[3.2.1]octan-8-yl]methanone]	–	0.1 µM
CC(C)(F)Cc1nnc(-c2ccc(C(=O)N3CCN(c4nc5nc(Cl)ccc5o4)CC3)cc2F)o1 [Example 298, [4-(5-chlorooxazolo[4,5-b]pyridin-2-yl)piperazin-1-yl]-[3-fluoro-4-[5-(2-fluoro-2-methyl-propyl)-1,3,4-oxadiazol-2-yl]phenyl]methanone]	–	0.095 µM
Cc1ccc2oc(N3CCN(C(=O)c4cc(F)c(-c5nnn(CC(C)(C)C)n5)c(F)c4)CC3)nc2n1 [Example 299, [4-[2-(2,2-dimethylpropyl)tetrazol-5-yl]-3,5-difluoro-phenyl]-[4-(5-methyloxazolo[4,5-b]pyridin-2-yl)piperazin-1-yl]methanone]	–	0.031 µM
CC(C)(C)Cn1nnc(-c2c(F)cc(C(=O)N3CCN(c4nc5nc(Cl)ccc5o4)CC3)cc2F)n1 [Example 300, [4-(5-chlorooxazolo[4,5-b]pyridin-2-yl)piperazin-1-yl]-[4-[2-(2,2-dimethylpropyl)tetrazol-5-yl]-3,5-difluoro-phenyl]methanone]	–	0.01 µM
Cc1ccc2oc(N3CCN(C(=O)c4ccc(-c5nnn(CC(C)(C)C)n5)c(C)c4)CC3)nc2n1 [Example 301, [4-[2-(2,2-dimethylpropyl)tetrazol-5-yl]-3-methyl-phenyl]-[4-(5-methyloxazolo[4,5-b]pyridin-2-yl)piperazin-1-yl]methanone]	–	0.003 µM
Cc1cc(C(=O)N2CCN(c3nc4nc(Cl)ccc4o3)CC2)ccc1-c1nnn(CC(C)(C)C)n1 [Example 302, [4-(5-chlorooxazolo[4,5-b]pyridin-2-yl)piperazin-1-yl]-[4-[2-(2,2-dimethylpropyl)tetrazol-5-yl]-3-methyl-phenyl]methanone]	–	0.002 µM
Cc1ccc2oc(N3CCN(C(=O)c4ccc(-c5nnn(CC(C)(C)C)n5)c(F)c4)CC3)nc2n1 [Example 303, [4-[2-(2,2-dimethylpropyl)tetrazol-5-yl]-3-fluoro-phenyl]-[4-(5-methyloxazolo[4,5-b]pyridin-2-yl)piperazin-1-yl]methanone]	–	0.007 µM
CC(C)(C)Cn1nnc(-c2ccc(C(=O)N3CCN(c4nc5nc(Cl)ccc5o4)CC3)cc2F)n1 [Example 304, [4-(5-chlorooxazolo[4,5-b]pyridin-2-yl)piperazin-1-yl]-[4-[2-(2,2-dimethylpropyl)tetrazol-5-yl]-3-fluoro-phenyl]methanone]	–	0.004 µM
CC(C)(C)Cn1nnc(-c2ncc(C(=O)N3CCN(c4nc5nc(Cl)ccc5o4)CC3)cc2F)n1 [Example 306, [4-(5-chlorooxazolo[4,5-b]pyridin-2-yl)piperazin-1-yl]-[6-[2-(2,2-dimethylpropyl)tetrazol-5-yl]-5-fluoro-3-pyridyl]methanone]	–	0.363 µM
Cc1ccc2oc(N3CCN(C(=O)c4cnc(-c5nnn(CC(C)(C)C)n5)c(F)c4)CC3)nc2n1 [Example 307, [6-[2-(2,2-dimethylpropyl)tetrazol-5-yl]-5-fluoro-3-pyridyl]-[4-(5-methyloxazolo[4,5-b]pyridin-2-yl)piperazin-1-yl]methanone]	–	1.13 µM
Cc1cc(C(=O)N2CCN(c3nc4nc(Cl)ccc4o3)CC2)cnc1-c1nnn(CC(C)(C)C)n1 [Example 308, [4-(5-chlorooxazolo[4,5-b]pyridin-2-yl)piperazin-1-yl]-[6-[2-(2,2-dimethylpropyl)tetrazol-5-yl]-5-methyl-3-pyridyl]methanone]	–	0.111 µM
Cc1ccc2oc(N3CCN(C(=O)c4cnc(-c5nnn(CC(C)(C)C)n5)c(C)c4)CC3)nc2n1 [Example 309, [6-[2-(2,2-dimethylpropyl)tetrazol-5-yl]-5-methyl-3-pyridyl]-[4-(5-methyloxazolo[4,5-b]pyridin-2-yl)piperazin-1-yl]methanone]	–	0.051 µM
COc1cc(C(=O)N2CCN(c3nc4nc(C)ccc4o3)CC2)cnc1-c1nnn(CC(C)(C)C)n1 [Example 310, [6-[2-(2,2-dimethylpropyl)tetrazol-5-yl]-5-methoxy-3-pyridyl]-[4-(5-methyloxazolo[4,5-b]pyridin-2-yl)piperazin-1-yl]methanone]	–	0.167 µM
COc1cc(C(=O)N2CCN(c3nc4nc(Cl)ccc4o3)CC2)cnc1-c1nnn(CC(C)(C)C)n1 [Example 311, [4-(5-chlorooxazolo[4,5-b]pyridin-2-yl)piperazin-1-yl]-[6-[2-(2,2-dimethylpropyl)tetrazol-5-yl]-5-methoxy-3-pyridyl]methanone]	–	0.061 µM
